Earlier results in patent US20090010894A1, “METHODS AND SYSTEMS FOR IDENTIFYING COMPOUNDS THAT MODULATE ALPHA-SYNUCLEIN AGGREGATION” (The parkinson's Institute, priority 2005, published 2009).

Legend:
[1] = tested on: transgenic C. elegans expressing A53T, E46K, or A30P human α-synuclein; conditions: exogenous dopamine; transgenic worms expressing mutant human α-synuclein
α-synuclein = α-synuclein (Homo sapiens, UniProt P37840); conditions: aggregated α-synuclein contacted with agent in vitro

NCCc1ccc(O)c(O)c1 [dopamine]
reversal of failure in food-sensing behavior [1]: reversed these effects

CO[C@H]1/C=C/O[C@@]2(C)Oc3c(C)c(O)c4c(O)c(c(/C=N/N5CCN(C)CC5)c(O)c4c3C2=O)NC(=O)/C(C)=C\C=C\[C@H](C)[C@H](O)[C@@H](C)[C@@H](O)[C@@H](C)[C@H](OC(C)=O)[C@@H]1C [rifampin]
promotes disaggregation of α-synuclein (α-synuclein): shown to have such an effect

CO[C@H]1/C=C/O[C@@]2(C)Oc3c(C)c(O)c4c(O)c(cc(O)c4c3C2=O)NC(=O)/C(C)=C\C=C\[C@H](C)[C@H](O)[C@@H](C)[C@@H](O)[C@@H](C)[C@H](OC(C)=O)[C@@H]1C [rifamycin]
promotes disaggregation of α-synuclein (α-synuclein): shown to have such an effect
